Test results: paper PMC7170507, “Biosynthesis of depsipeptides with a 3-hydroxybenzoate moiety and selective anticancer activities involves a chorismatase” (The Journal of Biological Chemistry, 2020)

Columns and labels:
A549 = experiment: cells; set-up: species or system human cancer cell lines; CCK8 cell viability assay, absorbance at 450 nm; conditions: Homo sapiens, 72 h
Experimental: (§1) Anticancer activities were evaluated by using human lung cancer cells PC9, human colorectal cancer cells Sw620, and human melanoma cells A375. Toxicity study was conducted by using three types of normal cells, 16HBE (an immortalized human bronchial epithelial cells), NCM460 (a normal human colon mucosal epithelial cell line), and HaCaT (a spontaneously immortalized keratinocyte cell line from adult human skin). All the cell lines were obtained from the Shanghai Institute of Cell Biology, Chinese Academy of Sciences. The cell cultivation media (Gibco) were supplemented with 10% fetal bovine serum, 100 units/ml penicillin, and 100 μg/ml streptomycin. The cells were maintained in a humidified atmosphere with 5% CO2 at 37 °C. Half-maximal inhibitory concentration (IC50) was determined by a CCK8 assay (Dojindo, Tokyo, Japan). Briefly, the cells were seeded in 96-well plates at a density of 3 × 10^3 cells/well and incubated for 24 h at 37 °C. Then the cells were treated with various concentrations of compound and incubated for 72 h. Afterward, 10 μl of CCK8 reagent was added to each well before a further incubation for 0.5–4.0 h at 37 °C. Finally, the absorbance of each well in the 96-well plate was measured at 450 nm using microplate reader. Because the 3-FAS moiety has been proposed to be the pharmacophore of anticancer activities in NATs ([3], [11]), we wished to know whether compounds 1–4 with the alternative 3-HBA moiety, instead of 3-FAS, would retain anticancer activities. The carcinoma cell lines of human lung (PC9), colon (Sw620), and melanoma (A375) were firstly selected to evaluate the activities of them, using as positive control the chemotherapeutic drug cisplatin. […] This is consistent with the activities previously shown for unantimycin A, which structurally differs from 1 at the C4 alkyl group and which has shown moderate cytotoxicity (IC50 = ∼10 μM) against human cervix epidermoid carcinoma, promyelocytic leukemia, and sarcoma cell lines ([13]). […] Further work will be required to establish convincingly that the apparently selective anticancer activities of 1–4 are endowed by the absence of binding to the quinone reduction site of the cytochrome bc1 complex, which makes antimycin A lethal to the mitochondrial respiratory chain ([12], [20]). Moreover, the broad-spectrum anticancer activities of 1–4 were evaluated by using six other carcinoma cell lines (Table S9).

HCT-8 = experiment: cells; set-up: species or system human cancer cell lines; CCK8 cell viability assay, absorbance at 450 nm; conditions: Homo sapiens, 72 h
Experimental: as §1

HT29 = experiment: cells; set-up: species or system human cancer cell lines; CCK8 cell viability assay, absorbance at 450 nm; conditions: Homo sapiens, HT-29, 72 h
Experimental: as §1

Hela = experiment: cells; set-up: species or system human cancer cell lines; CCK8 cell viability assay, absorbance at 450 nm; conditions: Homo sapiens, 72 h
Experimental: as §1

HepG2 = experiment: cells; set-up: species or system human cancer cell lines; CCK8 cell viability assay, absorbance at 450 nm; conditions: Homo sapiens, 72 h
Experimental: as §1

SGC7901 = experiment: cells; set-up: species or system human cancer cell lines; CCK8 cell viability assay, absorbance at 450 nm; conditions: Homo sapiens, SGC-7901, 72 h
Experimental: as §1

[1] = system: T1, C=C(O[C@@H]1C=C(C(=O)O)C=C[C@H]1O)C(=O)O; experiment: purified protein; type: biochemical, Streptomyces conglobatus; conditions: 50 mM Tris-HCl pH 8.0, 0.5 μM enzyme, 50-300 μM chorismate, 0.5 mM NADH, LDH
T1 construct: catalytic Glu-325

| Molecule | IC50 (A549) [µM] | IC50 (HCT-8) [µM] | IC50 (HT29) [µM] | IC50 (Hela) [µM] | IC50 (HepG2) [µM] | IC50 (SGC7901) [µM] | Km [1] [µM] | kcat [1] [s⁻¹] |
| --- | --- | --- | --- | --- | --- | --- | --- | --- |
| CC(C)C1OC(=O)C(NC(=O)c2cccc(O)c2)C(C)OC(=O)C(C(C)C)OC(=O)C(C)(C)C(=O)C(Cc2ccccc2)OC1=O (centres unmarked) [compound 3, 3] | 2.32 ± 0.01 | 10.9 ± 0.8 | 17.6 ± 0.9 | 23 ± 0.4 | 17.5 ± 0.6 | 6.63 ± 0.17 |  |  |
| Nat-hyg5 (Streptomyces conglobatus) |  |  |  |  |  |  | 54 ± 6 | 0.084 ± 0.003 |
| CCC(C)C1OC(=O)C(C)(C)C(=O)C(Cc2ccccc2)OC(=O)C(C(C)C)OC(=O)C(NC(=O)c2cccc(O)c2)C(C)OC1=O (centres unmarked) [compound 1, unantimycin B] | 7.7 ± 0.07 | 17.9 ± 1.4 | 19.4 ± 0.1 | 18.2 ± 0.2 | 13.4 ± 0.1 | 11.9 ± 0.1 |  |  |

Now from value to molecule, other results behind:

| IC50 (A549) [µM] | IC50 (HCT-8) [µM] | IC50 (HT29) [µM] | IC50 (Hela) [µM] | IC50 (HepG2) [µM] | IC50 (SGC7901) [µM] | Molecule | Km [1] [µM] | kcat [1] [s⁻¹] |
| --- | --- | --- | --- | --- | --- | --- | --- | --- |
| 2.97 ± 0.01 | 8.95 ± 0.13 | 17.2 ± 0.8 | 23.6 ± 0.5 | 18.3 ± 0.7 | 10.1 ± 0.3 | CC(C)C1OC(=O)C(NC(=O)c2cccc(O)c2)C(C)OC(=O)C(C(C)C)OC(=O)C(C)(C)C(O)C(Cc2ccccc2)OC1=O (centres unmarked) [compound 4, 4] |  |  |
| 2.99 ± 0.02 | 9.23 ± 0.16 | 14.9 ± 0.3 | 15.3 ± 1.5 | 15.2 ± 0.7 | 9.57 ± 0.22 | CCC(C)C1OC(=O)C(C)(C)C(O)C(Cc2ccccc2)OC(=O)C(C(C)C)OC(=O)C(NC(=O)c2cccc(O)c2)C(C)OC1=O (centres unmarked) [compound 2, 2] |  |  |
